By pKi is commonly meant the Ki on a negative log10 scale, so that one unit is a factor of ten. High values mean a low Ki, low ones a high Ki. As a reminder, the pEC50 is the EC50 on a negative log10 scale, so that one unit is a factor of ten. One may read the Emax as the greatest response seen or fitted, relative to the assay's reference.

Consider 14 compounds from ChEMBL document CHEMBL1141168, “Studies toward the pharmacophore of salvinorin A, a potent kappa opioid receptor agonist” (J Med Chem, 2005).

Experiment [1] concerns the target T1, Kappa-type opioid receptor (Rattus norvegicus, UniProt P34975). The experiment in a line: biochemical. The experiment is classed as cell-based, HEK293.
Description: Inhibition of [3H]U-69593 binding to rat opioid receptor kappa 1 expressed in HEK 293 cells
The species named for experiment [2] is Rattus norvegicus. Put plainly: Effective concentration of compound against intracellular calcium mobilization in rat. The experiment is classed as functional. A general note: A change in cytosolic calcium serves as a functional read-out for many receptors and channels.
The species named for experiment [3] is Rattus norvegicus. Put plainly: Emax value against intracellular calcium mobilization in rat. The experiment is classed as functional.
For experiment [4], the target named is T1, Kappa-type opioid receptor. Put plainly: Inhibition of [3H]diprenorphine binding to rat opioid receptor kappa 1 expressed in HEK 293 cells. It counts as cell-based, HEK293.

pEC50, pKi: −log10 of the molar value. Bounds are passed on as bounds.

T1 sequence (P34975 whole entry): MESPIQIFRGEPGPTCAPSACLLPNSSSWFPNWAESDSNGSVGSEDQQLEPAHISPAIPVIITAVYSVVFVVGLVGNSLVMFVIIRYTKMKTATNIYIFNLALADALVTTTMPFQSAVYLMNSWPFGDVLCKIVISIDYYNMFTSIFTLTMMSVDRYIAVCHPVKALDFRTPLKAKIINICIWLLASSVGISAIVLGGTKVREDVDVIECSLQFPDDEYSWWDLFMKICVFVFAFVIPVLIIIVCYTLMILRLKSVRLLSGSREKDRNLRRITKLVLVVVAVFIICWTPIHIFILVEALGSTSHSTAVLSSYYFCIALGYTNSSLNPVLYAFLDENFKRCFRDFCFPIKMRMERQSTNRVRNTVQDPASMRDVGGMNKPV

As to `COC(=O)C1=C[C@H](O)[C@H](OC(C)=O)[C@@H]2[C@@]3(C)C[C@@H](c4ccoc4)OC(=O)[C@@H]3CC[C@@]12C`, the pKi in experiment [1] is less than 5.00.

`COC(=O)[C@@H]1C[C@H](OC(C)=O)C(=O)[C@H]2[C@@]1(C)CCC1=CO[C@H](c3ccoc3)C[C@@]12C`: the pEC50 in experiment [2] is 6.65. Also, the pKi in experiment [1] was 8.22. Further, in experiment [3], the Emax was 103%.

Regarding `COC(=O)C1=C[C@H](OC(C)=O)[C@H](O)[C@@H]2[C@@]3(C)C[C@@H](c4ccoc4)OC(=O)[C@@H]3CC[C@@]12C`, the pKi in experiment [4] is less than 5.00.

In the case of `COC(=O)[C@@H]1C[C@H](OC(C)=O)C(=O)[C@H]2[C@@]1(C)CC[C@H]1C(O)O[C@H](c3ccoc3)C[C@]21C` (some centres undefined), the negative logarithm of the EC50 (pEC50) in experiment [2] was 7.11. The compound also had a pKi in experiment [1] of 7.23. The Emax in experiment [3] turned out to be 107%.

Regarding `COC(=O)[C@@H]1C[C@H](OC(C)=O)[C@H](OC(C)=O)[C@H]2[C@@]1(C)CC[C@H]1C(=O)O[C@H](c3ccoc3)C[C@]21C`, the pKi in experiment [1] is less than 5.00.

As for `COC(=O)[C@@H]1C[C@H](OC(C)=O)C(=O)[C@H]2[C@@]1(C)CC[C@H]1C(=O)O[C@H](C3CCOC3)C[C@]21C` (some centres undefined), the pEC50 in experiment [2] was 6.90. The compound further gave a pKi in experiment [1] of 6.81. Also, the maximum response (Emax) in experiment [3] was 108%.

As for `COC(=O)[C@@H]1C[C@H](OC(C)=O)C[C@H]2[C@@]1(C)CC[C@H]1C(=O)O[C@H](c3ccoc3)C[C@]21C`, the pEC50 in experiment [2] is 6.85. Also, the pKi in experiment [1] was 7.74. Also, the Emax in experiment [3] is 122%.

As to `COC(=O)C1=C[C@H](OC(C)=O)[C@H](OC(C)=O)[C@@H]2[C@@]3(C)C[C@@H](c4ccoc4)OC(=O)[C@@H]3CC[C@@]12C`, in experiment [1], the pKi was 5.99.

`COC(=O)[C@@H]1C[C@H](OC(C)=O)C(=O)[C@@H]2[C@@]3(C)C[C@@H](c4ccoc4)OC[C@@H]3CC[C@]21C`: the pEC50 in experiment [2] was 6.65. The pKi in experiment [1] was 8.22. In addition, the maximal effect (Emax) in experiment [3] was 103%.

With `COC(=O)[C@@H]1C[C@H](OC=O)C(=O)[C@H]2[C@@]1(C)CC[C@H]1C(=O)O[C@H](c3ccoc3)C[C@]21C`, the pEC50 in experiment [2] was 6.50. The same compound gave a negative logarithm of the Ki (pKi) in experiment [1] of 7.74. In experiment [3], the Emax is 108%.

Consider `CC(=O)O[C@H]1C[C@@H](CO)[C@]2(C)CC[C@H]3C(=O)O[C@H](c4ccoc4)C[C@]3(C)[C@H]2C1=O`, for which the pEC50 in experiment [2] is less than 5.00. Moreover, in experiment [1], the pKi was 6.46.

As for `COC(=O)[C@@H]1C[C@H](OC(C)=O)[C@H](O)[C@H]2[C@@]1(C)CC[C@H]1C(=O)O[C@H](c3ccoc3)C[C@]21C` [1-ALPHA-HYDROXYSALVINORIN A], the pKi in experiment [1] was 5.95.

Regarding `COC(=O)[C@@H]1C[C@H](OC(C)=O)C(=O)[C@@H]2[C@@]3(C)C[C@@H](c4ccoc4)OC(=O)[C@H]3CC[C@]21C` [SALVINORIN A (ESTER)], the pEC50 in experiment [2] is 6.61. In addition, the Emax in experiment [3] turned out to be 78%.

In the case of `COC(=O)[C@@H]1C[C@H](OC(C)=O)C(=O)[C@H]2[C@@]1(C)CC[C@H]1C(=O)O[C@H](c3ccoc3)C[C@]21C` [SALVINORIN A], the pEC50 in experiment [2] is 7.34. In experiment [3], the Emax is 100%.
